Laboratory results: patent US7772183B2 (Bristol-Myers Squibb Company, priority 2005, dated 2010)

Columns and labels:
[1] = target: T1, HCV NS3/4A protease complex, BMS strain (UniProt P27958, species not given/STRAIN_BMS); experiment: FRET peptide assay to monitor HCV NS3/4A proteolytic activity (BMS strain); assay type: biochemical, Hepatitis C virus (genotype 1a); details: NS3/4A BMS strain; read-out: IC50 Range
T1 construct: said of H77 and J4L6S; fused on or other part: A three-lysine solubilising tail at the C-terminus of NS4A and a His tag (pET21b, Ni-NTA purification)
In short: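 Recombinant NS3/4A complexes (aa 1027–1711) from H77 (1a) and J4L6S (1b) carried a three-lysine tail, C1711G and C1454S. They were expressed in E. coli BL21(DE3) (0.5 mM IPTG, 22 h, 20 °C), then purified by Ni-NTA and Superdex-S200 to >90% purity. The BMS strain was a genotype 1a clone from patient serum.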

[2] = test system: HCV replicon in HUH-7 cells; experiment: HCV replicon FRET assay; assay type: cell-based, Hepatitis C virus (strain 1b); details: Hepatitis C virus, Huh-7; HCV replicon, for compounds tested; read-out: EC50 Range
In short: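 HUH-7 cells stably carrying a genotype 1b subgenomic HCV replicon (NS3–NS5B) treated with compound for 4 days at 37° C, 0.5% DMSO final. Cytotoxicity (CC50) read by alamar Blue; cells then lysed with 10 μM FRET HCV protease peptide substrate and kinetically read (340/490 nm) for EC50.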

T1 sequence (P27958 1027-1657, change not shown, one chain of several): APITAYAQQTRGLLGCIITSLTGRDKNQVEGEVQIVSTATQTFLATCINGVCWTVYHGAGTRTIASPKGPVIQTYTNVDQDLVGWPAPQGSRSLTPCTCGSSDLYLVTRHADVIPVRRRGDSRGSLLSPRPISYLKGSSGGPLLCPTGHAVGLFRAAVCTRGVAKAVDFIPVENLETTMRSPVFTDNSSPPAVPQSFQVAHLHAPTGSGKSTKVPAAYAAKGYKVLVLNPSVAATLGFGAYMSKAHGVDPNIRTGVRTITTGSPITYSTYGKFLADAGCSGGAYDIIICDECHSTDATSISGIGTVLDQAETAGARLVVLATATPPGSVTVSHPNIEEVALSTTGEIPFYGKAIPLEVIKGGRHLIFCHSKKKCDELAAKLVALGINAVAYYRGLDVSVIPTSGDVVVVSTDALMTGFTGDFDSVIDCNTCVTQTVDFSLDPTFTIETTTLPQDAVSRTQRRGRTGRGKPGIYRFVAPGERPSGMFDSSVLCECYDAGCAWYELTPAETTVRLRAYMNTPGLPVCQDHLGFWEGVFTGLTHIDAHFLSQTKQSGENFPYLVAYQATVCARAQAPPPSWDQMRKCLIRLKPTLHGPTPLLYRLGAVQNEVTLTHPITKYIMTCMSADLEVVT

Compound | IC50 [1] [nM] | EC50 [2] [nM] | melting point [°C]
CCOC(=O)c1ccccc1NC(=O)N[C@H]1CCCCC/C=C\[C@@H]2C[C@@]2(C(=O)NS(=O)(=O)C2CC2)NC(=O)[C@@H]2C[C@@H](OC(=O)Nc3ccccc3C(=O)OCC)CN2C1=O [Compound 44] | < 100 | 100 to 1000 | 142 to 144
CC(C)(C)OC(=O)N[C@H]1COCCC/C=C\[C@@H]2C[C@@]2(C(=O)NS(=O)(=O)C2CC2)NC(=O)[C@@H]2C[C@@H](OC(=O)N3CCc4ccccc43)CN2C1=O [Compound 45, 18-(indolinecarbonyloxy)-14-tert-butoxycarbonylamino-4-cyclopropylsulfonylaminocarbonyl-2,15-dioxo-3,16-diaza-12-oxatricyclo-[14.3.0.0^4,6]-nonadec-7-ene] | < 100 | 100 to 1000 | 128 to 130
